Measured values from US7169907B2, “Derivatives, immunogens, and antibodies for detecting ecstasy-class drugs” (Roche Diagnostics Operations, Inc., priority 2002, dated 2007).

system: antibody MDMA-2.1.1; experiment: Cross-reactivity assay (competitive ELISA) of antibody MDMA-2.1.1; format: binding, mice; details: ED50 of standard divided by ED50 of drug, times 100
From the text: (§1) By determining the drug concentration that results in a 50% reduction in binding (ED 50) of a standard, methamphetamine, dividing by the ED50 of each other drug, and then multiplying the result by 100, the percent cross-reactivities shown in Table 2 can be calculated.
(§2) Supernatants are subjected to serial dilutions and re-tested in the ELISA screen above. The dilution providing for about a 50% reduction from the maximum OD is chosen for proceeding to cross-reactivity testing. This consists of repeating the preceding assay with the antibody at the chosen dilution and in the presence of varying concentrations of drugs. The charts shown in FIG. 5 and FIG. 6 present the results of such determinations.

**Q.** `CN[C@@H](C)Cc1ccc2c(c1)OCO2` [d-MDMA] was tested. Which “% Cross-reactivity” value did it give?
**A.** 100%

system: antibody NEAMP-1.3; experiment: Cross-reactivity assay (competitive ELISA) of antibody NEAMP-1.3; format: binding, mice; details: ED50 of standard divided by ED50 of drug, times 100
Procedure: as §1
Microplates were coated with 100 μL Methamphetamine-BSA conjugate 28 and separate plates with 100 μL N-ethylamphetamine-BSA 26 (Q=BSA, 26b) at 1 μg/mL in 0.1 M carbonate buffer, pH 9.5 for 1 hour at 37° C. (humidified).
A criterion for selection was binding to the Methamphetamine-BSA conjugate 28. Table 5 presents binding data for a portion of the screening of the Meth-BSA 28 and NEAMP-BSA 26 (Q=BSA, 26b) coated plates.
as §2, with “drugs.” for “drugs. The charts shown in FIG. 5 and FIG. 6 present the results of such determinations.”

**Q.** With `CN[C@@H](C)[C@@H](O)c1ccccc1` [Pseudoephedrine, pseudoephedrine] as the compound, how does the “Percent Cross-Reactivity” value read?
**A.** 2.0%

**Q.** For `CN[C@@H](C)[C@H](O)c1ccccc1` [I-ephedrine], which “Percent Cross-Reactivity” value is on record?
**A.** 6.7%

**Q.** `CNC(C)Cc1ccc2c(c1)OCO2` (stereo not drawn) [MDMA, 3,4-methylenedioxy-N-methylamphetamine] was tested. Which “Percent Cross-Reactivity” value did it give?
**A.** 114%

**Q.** `CN[C@@H](C)Cc1ccccc1` [d-MAMP, d-methamphetamine] was tested. Which “Percent Cross-Reactivity” value did it give?
**A.** 100%

**Q.** `CCNC(C)Cc1ccc2c(c1)OCO2` (stereo not drawn) [MDEA, 3,4-methylenedioxy-N-ethylamphetamine] was tested. Which “Percent Cross-Reactivity” value did it give?
**A.** 507%

**Q.** How did the “Percent Cross-Reactivity” value turn out when `C[C@H]1[C@H](c2ccccc2)OCCN1C` [Phendimetrazine] was run?
**A.** 0.6%

**Q.** With `CCC(Cc1ccc2c(c1)OCO2)NC` (stereo not drawn) [MBDB, 3,4-methylenedioxyphenyl-N-methylbutanamine] as the compound, how does the “Percent Cross-Reactivity” value read?
**A.** 20%

**Q.** Which “Percent Cross-Reactivity” value does the source give for `C[C@H](N)Cc1ccccc1` [d-AMP, d-amphetamine] here?
**A.** 32.5%
